In patent US20140023647A1, “METHOD FOR TREATING SOLID TUMORS” (BELLICUM PHARMACEUTICALS, INC., priority 2010, published 2014):
Where two headings read alike, the source gives them in different places.

Experiments:
NFkappaB = NFkappaB reporter assay, iCD40 constructs in Jurkat T cells with titrated AP20187; format: cell-based, human
Experimental: Reporters assays were conducted in human Jurkat-TAg (T cells) or 293 (kidney embryonic epithelial) cells or murine RAW264.7 (macrophage) cells. Jurkat-TAg cells (107) in log-phase growth were electroporated ([…], 250 V) with […] expression plasmid and […] of reporter plasmid NF-kB-SEAP or IFNb-TA-SEAP (see above). 293 or RAW264.7 cells (˜2×10^5 cells per 35-mm dish) in log phase were transfected with […] of FuGENE-6 in growth media. After 24 hr, transformed cells were stimulated with CID. After an additional 20 h, supernatants were assayed for SEAP activity as discussed previously (Spencer, D. M., et al., Science 262, 1019-1024 (1993)).
An inducible CD40 receptor based on chemical-induced dimerization (CID) and patterned after endogenous CD40 activation was produced to specifically target DCs (FIG. 1A). The recombinant CD40 receptor, termed iCD40, was engineered by rt-PCR amplifying the 228 bp CD40 cytoplasmic signaling domain from purified murine bone marrow-derived DCs (>95% CD11c+) and sub-cloning the resulting DNA fragment either downstream (i.e., M-FvFvlsCD40-E) or upstream (M-CD40-FvFvls-E) of tandem copies of the dimerizing drug binding domain, FKBP12(V36) (FIG. 1B). […]

[1] = cited from earlier work
FKBP12(V36) = molecular target: T1, FKBP12(V36) (Homo sapiens, UniProt P62942, F37V); assay: AP1903 needed in vitro for effective signaling of cells; format: cell-based
T1 construct: expressed in transfected cells; host or cells: cells transduced with Ad5f35-ihCD40 (human monocyte-derived dendritic cells); inferred, the sentence names no cells
Experimental: The fixed dose of AP1903 for Injection used in this study is 0.4 mg/kg intravenously infused over 2 hours. The amount of AP1903 needed in vitro for effective signaling of cells is 10-100 nM (1600 Da MW). This equates to 16-160 μg/L or ˜0.016-1.6 mg/kg (1.6-160 μg/kg). Doses up to 1 mg/kg were well-tolerated in the Phase I study of AP1903 described above. Therefore, 0.4 mg/kg may be a safe and effective dose of AP1903 for this Phase I study in combination with BPX-101.

IL-6 = molecular target: T2, IL-6 (Homo sapiens, UniProt P05231); conditions: cited from earlier work
T2 construct: host or cells: patients' endogenous IL-6

[2] = patients with advanced cancer, Clarke et al.

T2 sequence (P05231 30-212): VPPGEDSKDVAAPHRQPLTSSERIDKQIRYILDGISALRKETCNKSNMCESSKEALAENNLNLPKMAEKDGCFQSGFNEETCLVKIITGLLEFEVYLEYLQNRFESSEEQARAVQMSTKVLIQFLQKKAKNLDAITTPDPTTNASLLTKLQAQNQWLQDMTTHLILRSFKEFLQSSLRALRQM
T1 sequence (P62942 2-108 F37V): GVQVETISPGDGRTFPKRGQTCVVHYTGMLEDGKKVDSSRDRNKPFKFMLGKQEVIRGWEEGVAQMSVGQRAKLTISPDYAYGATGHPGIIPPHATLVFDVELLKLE

In the case of CC[C@H](C(=O)N1CCCC[C@H]1C(=O)O[C@H](CCc1ccc(OC)c(OC)c1)c1cccc(OCC(=O)NCC(CNC(=O)COc2cccc([C@@H](CCc3ccc(OC)c(OC)c3)OC(=O)[C@@H]3CCCCN3C(=O)[C@@H](CC)c3cc(OC)c(OC)c(OC)c3)c2)CN(C)C)c1)c1cc(OC)c(OC)c(OC)c1 [AP20187], the “high drug dose suppression” value (NFkappaB; iCD40-transfected Jurkat T cells) is reported as “over 100 nM” and the “NF B transcriptional activity” value (NFkappaB; increasing AP20187, iCD40 constructs vs control vector M-FvFvls-E) is reported as “significant upregulation”.

In the case of CC[C@H](C(=O)N1CCCC[C@H]1C(=O)O[C@H](CCc1ccc(OC)c(OC)c1)c1cccc(OCC(=O)NCCNC(=O)COc2cccc([C@@H](CCc3ccc(OC)c(OC)c3)OC(=O)[C@@H]3CCCCN3C(=O)[C@@H](CC)c3cc(OC)c(OC)c(OC)c3)c2)c1)c1cc(OC)c(OC)c(OC)c1 (relative stereo) [AP1903, 2-Piperidinecarboxylic acid, 1-[(2S)-1-oxo-2-(3,4,5-trimethoxyphenyl)butyl]-, 1,2-ethanediylbis[imino(2-oxo-2,1-ethanediyl)oxy-3,1-phenylene[(1R)-3-(3,4-dimethoxyphenyl)propylidene]]ester, [2S-[1(R*),2R*[S*[S*[1(R*),2R*]]]]]-(9Cl)], the “mean Cmax” value ([1]; 0.01-1.0 mg/kg dose range, IV over 2 hours, plasma) is listed as 10 to 1275 ng/mL, the “AP1903 plasma levels versus dose” value ([1]; 0.01-1.0 mg/kg) is listed as “directly proportional to dose” and the “plasma level as % of maximal concentration” value (“plasma level as %” for short) ([1]; 0.5 hours post-dose) is listed as “approximately 18%”. For the same molecule, the “plasma level as %” value ([1]; 2 hours post-dose) was about 7%, the “plasma level as %” value ([1]; 10 hours post-dose) was about 1% and the well-tolerated doses ([1]; Phase I study of AP1903) was “up to 1 mg/kg”. For the same molecule, the “amount needed for effective signaling, converted to dose” value (FKBP12(V36)) was 0.016 to 1.6 mg/kg, the “amount needed in vitro for effective signaling of cells” value (FKBP12(V36)) was 10 to 100 nM and the “amount needed for effective signaling, converted” value (FKBP12(V36); 1600 Da MW) was 16 to 160 µg/L.

B1: ALD-518: humanized anti-IL-6 monoclonal antibody (antibody, chains of the INN, looked up, V domains shown)
VH: EVQLVESGGGLVQPGGSLRLSCAASGFSLSNYYVTWVRQAPGKGLEWVGIIYGSDETAYATSAIGRFTISRDNSKNTLYLQMNSLRAEDTAVYYCARDDSSDWDAKFNLWGQGTLVTVSS
VL: AIQMTQSPSSLSASVGDRVTITCQASQSINNELSWYQQKPGKAPKLLIYRASTLASGVPSRFSGSGSGTDFTLTISSLQPDDFATYYCQQGYSLRNIDNAFGGGTKVEIK
In the case of B1, the “hematologic parameters and albumin” value (IL-6; larger study, cancer-related anemia, cachexia and fatigue, Schuster et al.) is given as “increase hemoglobin, hematocrit, mean corpuscular hemoglobin, and albumin”, the C-reactive protein levels (IL-6; [2]) is given as “decrease in C-reactive protein levels” and the “fatigue, hemoglobin and albumin” value (IL-6; [2]) is given as “reverse fatigue, increase hemoglobin and increase albumin”. The hand grip strength (IL-6; [2]) was “trend to increased hand grip strength”.
